“And” between values parts separate entries of the source, which are not always exact repeats. Equal values may be shown once.
Tests used:
Assay type in all cases: physicochemical
[1] = Dynamic vapor sorption / hygroscopicity
Procedure, shortened: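 Sample equilibrated at 50% r.h. on a microbalance, then one cycle at ±5% r.h. h^−1 spanning 0–95% r.h., with 5 h holds at 0% and 95% r.h. and 2 h holds at 50% r.h., run either desorption-first or sorption-first. Hygroscopicity classed from mass gain at 85% r.h. relative to initial mass.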

[2] = Solubility determination (15 minutes at room temperature, HPLC); details: fifteen minutes
Protocol: 1 mL of buffer or of ultrapure (resistivity≥18.2 Mf cm) water was added to a pre-weighed, approximately twenty milligram aliquot of the substance to be measured. The resulting suspensions were stirred for 15 minutes at room temperature with magnetic stirrers. The suspensions were centrifuged and filtered through Millipore 0.2 μm PVDF filters, and the concentration of each filtrate (i.e., saturated solution) was determined using a general HPLC method. The pH of each saturated solution was measured with a Metrohm 713 pH meter.
To assess whether Form K and Form K′ are likely to have different bioavailabilities, comparative solubility measurements were carried out in physiologically relevant media. Samples of Form K and Form K′ were separately equilibrated in pure water, pH 2.0 buffer, and pH 6.8 buffer for fifteen minutes, and the solids were then separated from the solvents. The concentration of the compound in the filtrate (i.e., the solubility) was assessed in each case, and the solid residues were also monitored by powder X-ray diffraction. All six solid residues correspond to Form K, confirming that Form K′ rapidly incorporates water into its lattice when suspended in an aqueous environment even when the solubility is low. While the solubilities in pure water and at pH 6.8 were below the limit of quantitation of 0.0001 mg/mL, the solubilities at pH 2.0 could be measured. […] Thus, the bioavailabilities of the two forms are expected to be similar, and precise control of the water content (and, thereby, the solid form) is presumably not necessary from a scientific point of view. Given that the critical water activity is in the range aH2O=0.11-0.17, the hydrated Form K is likely to be the more easily stabilized of the two forms under ambient laboratory conditions.

[3] = Competitive slurry and slurry stability experiments; details: acetone/water, water contents 5% vol. and higher, room temperature and 45° C.
Protocol: Form B was obtained at room temperature while form C was obtained at 45° C. in acetone alone.
The HBr salt was largely insoluble in various buffers when 1 mg/mL slurries were prepared and the mother liquor concentration determined (by HPLC): <0.05 mg/mL in all buffers tested.

[4] = Storage at controlled relative humidities (Form K / Form K′)
Description: It was noticed that after Form K was dried, the XRPD peaks of Form K shifted to a higher value and the resulting XRPD pattern is called Form K′. To further understand the relationships between the two forms, free base Form K and Form K′ were placed on XRPD sample holders and stored in a closed Jars with saturated salt solutions for RH controls at ambient temperature, respectively. […] The XRPD diffractograms of the samples after 2-day storage are presented in FIG. 132 and FIG. 133, respectively. […] Since the peaks of Form K shifted to higher 2-theta value as Form K loses water molecules to Form K′, Form K and Form K′ are on a continuum.

[5] = Mechanical stressing (grinding, compression); details: compressed under 2000 psi for 1 minute
Protocol: Mechanical stressing experiment: the following table describes three experiments involving mechanical stressing of Form A and/or Form B of free base Compound 1 by grinding with a mortar and pestle.
Shear Sensitivity: Form K was compressed under 2000 psi for 1 minute and analyzed by XRPD.

N#Cc1ccc(N2CCN(Cc3ccc(COc4cccc5c4CN([C@H]4CCC(=O)NC4=O)C5=O)cc3)CC2)c(F)c1.O [Form K of a free base of Compound 1]
plateau in water uptake ([1]; DVS sorption, corresponding to ~1 mole of water): ~3.2 % w/w | hygroscopicity ([1]; DVS, class by mass gain at 85% r.h.): slightly hygroscopic (slightly hygroscopic (mass increase of <2% but ≥0.2%)) | solid form after DVS cycle ([1]; after the DVS humidity cycle): stable with respect to application of a DVS cycle | DVS mass increase ([1]; relative humidity from about 5% to about 95%): about 3.2% | solubility at pH 2.0 ([2]; pH 2.0 buffer): 0.96 mg/mL | solid residue after solubility measurement (powder X-ray diffraction) ([2]; pure water, pH 2.0 buffer and pH 6.8 buffer): Form K | competitive slurry of Form B, Form C and Form K [3]: most stable form | form conversion on storage (XRPD) ([4]; 11% RH, ambient temperature): converts to K′ | critical water activity range for interconversion of Form K and Form K′ ([4]; aH2O): 0.11-0.22 and 0.11-0.17 | PXRD result after storage ([4]; stored at 17% r.h. and r.t. for 5.5 d): Form K | Shear Sensitivity (XRPD) [5]: remained as Form K

Reference: patent US12391672B2, “Solid forms comprising (S)-4-(4-(4-(((2-(2,6-dioxopiperidin-3-yl)-1-oxoisoindolin-4-yl)oxy)methyl)benzyl)piperazin-1-yl)-3-fluorobenzonitrile and salts thereof, and compositions comprising and methods of using the same” (Celgene Corporation, priority 2019, dated 2025)
